One assay relates to T cells. Put plainly: RNA sequencing of T cells exposed to DMSO or UA. Conditions: 48 hours. The class given is cell-based. Here is the method: (FIG. 5B) RNAseq expression heatmap of selected genes: Genes associated with immune checkpoints, effector molecules and genes encoding for leukocyte migration. (FIG. 5C) Expression of genes associated with T cell memory vs effector fate decisions. Data underwent z-score normalization for display (n=3 per group). […] T cells were stimulated for 48 h in vitro at the presence of the indicated treatments. Data are mean ± SD (n=4/4/3), statistical analysis was performed by two-sided t-test (p***<0.01; p****0.0001). (FIG. 5E) Quantification of TSCM formation within CD8+ cells after 48 h of in vitro stimulation under various treatment conditions, including TCF1 inhibition by ICG001 (DMSO, UA, TCF1i n=4; TCFi+UA n=3). Data are mean ± SD, statistical analysis was performed by two-sided t-test (*p < 0.05; n.s. not significant). One of two independent experiments are shown. (FIG. 5F) Western blot analysis of β-Catenin phosphorylation status in CD3+ cells stimulated via plate-bound aCD3/aCD28 antibodies for 6h. N=3 per group. (FIG. 5G) Cytosolic fractionation of CD3+ cells stimulated for six hours in the presence of Urolithin or DMSO control (c= cytosolic, m = mitochondrial fraction). Experiment was repeated twice.
(FIG. 8A) Ingenuity pathway upstream regulator analysis of UA treated T cells. Assessed from RNAseq data. Plausible upregulation is depicted by z score, significance is shown on the overlying dot spot. Genes with a log2 fold change of 1 and p<0.05 were initially considered.
To explore the downstream events linking mitophagy to TSCM formation, we performed RNA sequencing to globally assess differential gene expression in T cells exposed for 48 hours to either DMSO or UA in vitro. […] Indeed, when we applied ICG001 to pharmacologically block TCF-1, UA-induced TSCM formation in vitro was abrogated (FIGS. 5D-E).

Assay [1] has as its system Th1/Th17 cell infiltration. The note with it: in vivo; cited from earlier work.
The test system of a further assay is APTK-s.c. tumors. The assay can be described thus: Oral UA in mice with established s.c. APTK tumors. The class given is in vivo, C57BL/6 mice. The text has this: Oral UA confers anti-tumor effects in murine colorectal cancer in a T-cell dependent manner. (FIG. 1A) Schematic representation of AOM model and different UA containing diets. (FIG. 1B) Representative images of swiss-roll sections from AOM-induced colon tumors. Scale bars are 2 mm (upper row) and 300 µm (lower row), respectively. (FIG. 1C) Tumor incidence of AOM-induced tumors receiving different UA-containing diets; n=4/5/5. Data are mean ±SD, depicting one of two independent experiments. *p < 0.05 by two-sided t-test. (FIG. 1D) Average lesion size of AOM-induced tumors receiving different UA-containing diets; n=4/5/5. Data are mean ±SD, depicting one of two independent experiments. *p < 0.05 by two-sided t-test. (FIG. 1E) Relative number of CD45^+CD3^+ T cells in colons of AOM-treated mice at week 24 (n>7, pooled from two independent experiments). Data are mean ± SD, **p < 0.01 by two-sided t-test. (FIG. 1F) Organoid treatment scheme. APTK-organoids were incubated in the presence of UA or DMSO for the indicated time points, prior to flow cytometric analysis. (FIG. 1G) Quantification of lysosome formation as assessed by lysotracker MFI via flow cytometry after 24 h incubation at the presence of various UA concentrations (n=5/4/4). Depicts one out of two indepdent experiments. Data are mean ± SD, *p < 0.05; **p < 0.01 as established via two-sided t-test. (FIG. 1H) Mitotracker signal of APTK organoids incubated for 24 h at the presence of UA in vitro (n=4/4/4) and antigen presentation via MHC-I molecules (I) after 48 h of treatment (n=4/4/4). Results from one out of two independent experiments are shown. Data are mean ± SD, statistical analysis was performed via two-sided t-test, *p < 0.05; **p < 0.01, ****p < 0.0001. (FIG. 1I) Upregulation of MHC-I by UA. (FIG. 1J) Experimental setup of oral UA administration in mice with established APTK-s.c. tumors. Treatment diet was initiated eleven days after tumor injection and maintained until the end of the experiment. (FIG. 1K) Growth curve of mice subcutaneously transplanted with APTK tumors, receiving either UA-containing or control food (n=7 per group). Data are mean ± SD, ***p <0.001 by two-sided t-test. One out of two independent experiments are shown. (FIG. 1L) End point tumor weight, (FIG. 1M) CD8+ T cell infiltration in APTK-s.c. tumors assessed by flow cytometry, normalising total number of CD8^+ T cells to tumor weight (n=7 per group). Data are mean ± SD, statistical analysis was performed via Mann-Whitney test, *p < 0.05 and ***p <0.001. (FIG. 1N) Size of subcutaneous APTK tumors in Rag1^-/- mice receiving UA-containing or control food (n=7 per group). Treatment was initiated as depicted in FIG. 1J. Data are mean +-SD, depicting one out of two independent experiments. […]

For assay [2], the system named is CEA-expressing human CRC organoids. Put plainly: Killing of CEA-expressing CRC organoids by CEA-specific CAR T cells. Conditions: 72 h co-culture. The class given is cell-based.
Assay [3] has as its system FoxP3+ T-regulatory cells. The note with it: cited from earlier work.
In a further assay the test system is subcutaneous APTK tumors. Put plainly: Oral UA in Rag1-/- mice with s.c. APTK tumors. Conditions: UA-containing vs control food; no mature T and B cells. The class given is in vivo. From the text:
Oral UA confers anti-tumor effects in murine colorectal cancer in a T-cell dependent manner. (FIG. 1A) Schematic representation of AOM model and different UA containing diets. (FIG. 1B) Representative images of swiss-roll sections from AOM-induced colon tumors. Scale bars are 2 mm (upper row) and 300 µm (lower row), respectively. (FIG. 1C) Tumor incidence of AOM-induced tumors receiving different UA-containing diets; n=4/5/5. Data are mean ±SD, depicting one of two independent experiments. *p < 0.05 by two-sided t-test. (FIG. 1D) Average lesion size of AOM-induced tumors receiving different UA-containing diets; n=4/5/5. Data are mean ±SD, depicting one of two independent experiments. *p < 0.05 by two-sided t-test. (FIG. 1E) Relative number of CD45^+CD3^+ T cells in colons of AOM-treated mice at week 24 (n>7, pooled from two independent experiments). Data are mean ± SD, **p < 0.01 by two-sided t-test. (FIG. 1F) Organoid treatment scheme. […] (FIG. 1G) Quantification of lysosome formation as assessed by lysotracker MFI via flow cytometry after 24 h incubation at the presence of various UA concentrations (n=5/4/4). […] (FIG. 1L) End point tumor weight, (FIG. 1M) CD8+ T cell infiltration in APTK-s.c. tumors assessed by flow cytometry, normalising total number of CD8^+ T cells to tumor weight (n=7 per group). […]

SMILES strings stand for the structures.

As to `O=c1oc2cc(O)ccc2c2ccc(O)cc12` [Urolithin A], in the assay on T cells, the “effector fate associated genes Prdm1 and Id2” value was “reduced expression”; the “expression of Cd27, Ccr7 and adhesion genes” value is reported as “enhancing expression”; the “expression of genes coding for immune checkpoints and effector molecules” value was “reduced the expression”; the “genes involved in memory formation (Tcf7, Bach2, Bcl6)” value is listed as “special enrichment”. Further, in assay [1], the Th1/Th17 cell infiltration result is “blocking Th1/Th17 cell infiltration”. In addition, the tumor growth result in the assay on APTK-s.c. tumors (CD8+ T cell depleting antibodies, UA-containing or control food) was “exacerbated tumor growth in both control and UA-fed cohorts”. Besides, the tumor growth result in the assay on APTK-s.c. tumors (UA-containing food plus a-PD1) was “sensitized APTK tumors to PD-1 blockade”. Besides, in the assay on APTK-s.c. tumors (high-dose UA diet (2.28 g/kg)), the “CD8+ T cell infiltration” value is on record as “enhanced CD8^+ T cell infiltration”. Also, in the assay on APTK-s.c. tumors (high-dose UA diet (2.28 g/kg), started eleven days after tumor injection), the tumor growth entry is recorded as “significantly reduced tumor growth”. Also, in assay [2], the “killing efficacy of CEA-expressing human CRC organoids” value is on record as “comparable killing efficacy”. Also, the “FoxP3+ T-regulatory cells” value in assay [3] is “expanding FoxP3+ T-regulatory cells”. In addition, the “tumor size, protective effect of UA” value in the assay with subcutaneous APTK tumors is given as “abrogated the protective effect of UA”.

Values taken from patent US20230277669A1, “USES OF UROLITHINS” (Amazentis SA, priority 2022, published 2023).
